Data on 19 compounds can be found in patent US9090596B2, “Disubstituted 3,4-diamino-3-cyclobutene-1,2-dione compounds for use in the treatment of chemokine-mediated pathologies” (GALDERMA RESEARCH & DEVELOPMENT, priority 2011, dated 2015).

The target in one experiment is CXCR1 receptor (Homo sapiens (Human), UniProt P25024). Put plainly: β-arrestin 2 recruitment test, U2OS hCXCR1 β-arrestin cells stimulated with CXCL8. Type of experiment: cell-based. The conditions noted are these: CXCL8 stimulation. As to the method:
(§1) The in vitro affinity of the compounds of the present invention for the CXCR1 and CXCR2 receptors was determined on a functional test of the β-arrestin recruitment type after receptor activation.
(§2) β-Arrestin Recruitment Assay:
(§3) “PathHunter HEK293-CXCR2” or “U2OS hCXCR1 β-arrestin” cells (DiscoveRx Corporation) were seeded overnight at 10 000 cells/well (384-well format) in 20 μl of Opti MEM I medium. A preincubation with the antagonist or the vehicle for 30 min at 37° C. and 5% CO2 was followed by 60 minutes of stimulation with CXCL8 at 37° C. and 5% CO2. The cells were then placed at ambient temperature for 30 minutes. The PathHunter detection reagent (DiscoveRx Corporation) was added. […] The data were analyzed by means of a non-linear curve procedure using the XLFit4 exploitation software (IDBS) and the IC50 values were determined.
In general terms: Arrestin recruitment assays detect the binding of arrestin to an activated receptor.

A further experiment concerns the target CXCR2 receptor (Homo sapiens (Human), UniProt P25025). Put plainly: β-arrestin 2 recruitment test, PathHunter HEK293-CXCR2 cells stimulated with CXCL8. Type of experiment: cell-based. The conditions noted are these: CXCL8 stimulation. The method, then: as §1, §2, §3

pIC50: −log10 of the molar value.

CXCR1 receptor, sequence (P25024 whole entry): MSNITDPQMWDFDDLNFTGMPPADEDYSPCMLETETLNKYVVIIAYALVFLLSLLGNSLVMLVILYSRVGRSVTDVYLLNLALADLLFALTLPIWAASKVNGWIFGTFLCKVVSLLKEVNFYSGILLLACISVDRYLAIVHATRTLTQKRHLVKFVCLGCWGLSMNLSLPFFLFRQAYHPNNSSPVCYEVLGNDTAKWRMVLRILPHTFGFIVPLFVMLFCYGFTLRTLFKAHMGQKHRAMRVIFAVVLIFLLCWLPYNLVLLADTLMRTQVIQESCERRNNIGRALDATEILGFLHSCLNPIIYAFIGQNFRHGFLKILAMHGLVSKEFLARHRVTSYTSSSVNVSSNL
CXCR2 receptor, sequence (P25025 whole entry): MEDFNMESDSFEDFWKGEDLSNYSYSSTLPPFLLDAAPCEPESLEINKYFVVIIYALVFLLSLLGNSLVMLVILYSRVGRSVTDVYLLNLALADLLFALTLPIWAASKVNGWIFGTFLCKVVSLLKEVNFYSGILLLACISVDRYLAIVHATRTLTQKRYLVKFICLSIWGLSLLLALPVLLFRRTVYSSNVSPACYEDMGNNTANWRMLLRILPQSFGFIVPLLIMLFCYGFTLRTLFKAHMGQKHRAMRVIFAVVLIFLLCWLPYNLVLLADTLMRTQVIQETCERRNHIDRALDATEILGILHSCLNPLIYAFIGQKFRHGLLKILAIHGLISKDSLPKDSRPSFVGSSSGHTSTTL

As a reminder, the pIC50 is −log10 of the IC50, conventionally taken in molar units. High values mean a low IC50, low ones a high IC50. On to `Cc1ccoc1C(Nc1c(Nc2cccc(C(=O)N(C)C)c2O)c(=O)c1=O)C1(C)COC1` (stereo not drawn) [Example 37b, 2-Hydroxy-N,N-dimethyl-3-(2-{[(3-methylfuran-2-yl)-(3-methyloxetan-3-yl)methyl]amino}-3,4-dioxocyclobut-1-enylamino)benzamide], for which the pIC50 against CXCR1 receptor was 5.11; on CXCR2 receptor, 6.68.

As to `Cc1coc(C(Nc2c(Nc3cccc(C(=O)N(C)C)c3O)c(=O)c2=O)C2(C)COC2)c1` (stereo not drawn) [Example 37a, 2-hydroxy-N,N-dimethyl-3-(2-{[(4-methylfuran-2-yl)-(3-methyloxetan-3-yl)methyl]amino}-3,4-dioxocyclobut-1-enylamino)benzamide], the pIC50 is 6.08 against CXCR1 receptor and 7.49 against CXCR2 receptor.

As for `Cc1ccc(C(Nc2c(Nc3cccc(C#N)c3O)c(=O)c2=O)C2(C)COC2)o1` (stereo not drawn) [Example 42, 2-hydroxy-3-(2-{[(5-methylfuran-2-yl)-(3-methyloxetan-3-yl)methyl]amino}-3,4-dioxocyclobut-1-enylamino)benzonitrile], at CXCR2 receptor, the pIC50 was 6.51.

For the compound `COc1ccc(Nc2c(NC(c3ccc(C)o3)C3(C)COC3)c(=O)c2=O)c(O)n1` (stereo not drawn) [Example 39, 3-(2-hydroxy-6-mèthoxypyridin-3-ylamino)-4-{[(5-methylfuran-2-yl)-(3-methyloxetan-3-yl)methyl]amino}cyclobut-3-ene-1,2-dione], the pIC50 against CXCR1 receptor is 5.00; against CXCR2 receptor it was 5.99.

`COc1cccc(C(Nc2c(Nc3cccc(C(=O)N(C)C)c3O)c(=O)c2=O)C2(C)COC2)c1` (stereo not drawn) [Example 28, 3-(2-{[(3-methyloxetan-3-yl)-(3-methoxyphenyl)methyl]-amino}-3,4-dioxocyclobut-1-enylamino)-2-hydroxy-N,N-dimethylbenzamide]: the figures for the negative-log IC50 (pIC50) at CXCR1 receptor and against CXCR2 receptor were 5.26 and 6.32, respectively.

As for `Cc1ccc([C@H](Nc2c(Nc3cccc(C(=O)N(C)CC(F)(F)F)c3O)c(=O)c2=O)C2(C)COC2)o1` [Example 48, 2-hydroxy-N-methyl-3-(2-{[(R)-(5-methylfuran-2-yl)-(3-methyloxetan-3-yl)methyl]amino}-3,4-dioxocyclobut-1-enylamino)-N-(2,2,2-trifluoroethyl)benzamide], the pIC50 on CXCR1 receptor is 6.25; against CXCR2 receptor, 7.59.

Take `CC(C)c1coc(C(Nc2c(Nc3cccc(C(=O)N(C)C)c3O)c(=O)c2=O)C2(C)COC2)c1` (stereo not drawn) [Example 38, 2-hydroxy-N,N-dimethyl-3-(2-{[(4-isopropylfuran-2-yl)-(3-methyloxetan-3-yl)methyl]amino}-3,4-dioxocyclobut-1-enylamino)benzamide]: the figures for the pIC50 against CXCR1 receptor and on CXCR2 receptor were 6.49 and 7.60, respectively.

On to `CN(C)C(=O)c1cccc(Nc2c(NC(c3cccs3)C3(C)COC3)c(=O)c2=O)c1O` (stereo not drawn) [Example 34, 2-hydroxy-N,N-dimethyl-3-(2-{[(3-methyloxetan-3-yl)thiophen-2-ylmethyl]amino}-3,4-dioxocyclobut-1-enylamino)benzamide], for which the pIC50 is 5.79 at CXCR1 receptor and 6.97 against CXCR2 receptor.

Take `CN(C)C(=O)c1cccc(Nc2c(NC(c3ccc4c(c3)OCO4)C3(C)COC3)c(=O)c2=O)c1O` (stereo not drawn) [Example 30, 3-(2-{[benzo[1,3]dioxol-5-yl-(3-methyloxetan-3-yl)methyl]amino}-3,4-dioxocyclobut-1-enylamino)-2-hydroxy-N,N-dimethylbenzamide]: the negative-log IC50 (pIC50) was 5.65 at CXCR1 receptor and 6.46 on CXCR2 receptor.

As for `CN(C)C(=O)c1cccc(Nc2c(NC(c3ccco3)C3(C)COC3)c(=O)c2=O)c1O` (stereo not drawn) [Example 36, 3-(2-{[furan-2-yl-(3-methyloxetan-3-yl)methyl]amino}-3,4-dioxocyclobut-1-enylamino)-2-hydroxy-N,N-dimethylbenzamide], the negative logarithm of the IC50 (pIC50) was 5.77 against CXCR1 receptor and 6.70 against CXCR2 receptor.

Take `Cc1ccc(C(Nc2c(Nc3cccc(C(=O)N4CCCC4)c3O)c(=O)c2=O)C2(C)COC2)o1` (stereo not drawn) [Example 14, 3-[2-hydroxy-3-(pyrrolidine-1-carbonyl)phenylamino]-4-{[(5-methylfuran-2-yl)-(3-methyloxetan-3-yl)methyl]amino}cyclobut-3-ene-1,2-dione]: the figures for the pIC50 on CXCR1 receptor and at CXCR2 receptor were 5.89 and 6.58, respectively.

In the case of `COC(=O)[C@@H]1CCCN1C(=O)c1cccc(Nc2c(N[C@@H](c3ccc(C)o3)C3(C)COC3)c(=O)c2=O)c1O` [Example 9, methyl (S)-1-[2-hydroxy-3-(2-{[(R)-(5-methylfuran-2-yl)-(3-methyloxetan-3-yl)methyl]amino}-3,4-dioxocyclobut-1-enylamino)benzoyl]pyrrolidine-2-carboxylate], the results for the pIC50 against CXCR1 receptor and at CXCR2 receptor were 6.18 and 7.22, respectively.

In turn, `COc1ccc(C(Nc2c(Nc3cccc(C(=O)N(C)C)c3O)c(=O)c2=O)C2(C)COC2)cc1` (stereo not drawn) [Example 29, 3-(2-{[(3-methyloxetan-3-yl)-(4-methoxyphenyl)methyl]amino}-3,4-dioxocyclobut-1-enylamino)-2-hydroxy-N,N-dimethylbenzamide] showed a pIC50 against CXCR2 receptor of 6.36.

With `Cc1ccc(C(Nc2c(Nc3cccc(C(=O)C(C)C)c3O)c(=O)c2=O)C2(C)COC2)o1` (stereo not drawn) [Example 12, 3-(2-hydroxy-3-isobutyrylphenylamino)-4-{[(5-methylfuran-2-yl)-(3-methyloxetan-3-yl)methyl]amino}cyclobut-3-ene-1,2-dione], the negative-log IC50 (pIC50) against CXCR1 receptor was 5.00; against CXCR2 receptor it was 7.00.

For the compound `Cc1ccc(C(Nc2c(Nc3ccc(Cl)nc3O)c(=O)c2=O)C2(C)COC2)o1` (stereo not drawn) [Example 40, 3-(6-chloro-2-hydroxypyridin-3-ylamino)-4-{[(5-methylfuran-2-yl)-(3-methyloxetan-3-yl)methyl]amino}cyclobut-3-ene-1,2-dione], the pIC50 against CXCR1 receptor was 5.28; at CXCR2 receptor it was 6.30.

In the case of `Cc1ccc(C(Nc2c(Nc3cccc(C(=O)N4CC[C@@H](O)C4)c3O)c(=O)c2=O)C2(C)COC2)o1` (stereo partly drawn) [Example 5, 3-[2-hydroxy-3-((R)-3-hydroxypyrrolidine-1-carbonyl)phenylamino]-4-{[(5-methylfuran-2-yl)-(3-methyloxetan-3-yl)methyl]amino}cyclobut-3-ene-1,2-dione], the pIC50 against CXCR1 receptor is 5.58; at CXCR2 receptor it was 6.47.

Take `Cc1ccc(C(Nc2c(Nc3cccc(C(=O)N4CC[C@H](O)C4)c3O)c(=O)c2=O)C2(C)COC2)o1` (stereo partly drawn) [Example 6, 3-[2-hydroxy-3-((S)-3-hydroxypyrrolidine-1-carbonyl)phenylamino]-4-{[(5-methylfuran-2-yl)-(3-methyloxetan-3-yl)methyl]amino}cyclobut-3-ene-1,2-dione]: the values for the pIC50 on CXCR1 receptor and at CXCR2 receptor were 5.55 and 5.96, respectively.

With `COC(=O)CN(C)C(=O)c1cccc(Nc2c(N[C@@H](c3ccc(C)o3)C3(C)COC3)c(=O)c2=O)c1O` [Example 51, methyl {[2-hydroxy-3-(2-{[(R)-(5-methylfuran-2-yl)-(3-methyloxetan-3-yl)methyl]amino}-3,4-dioxocyclobut-1-enylamino)benzoyl]methylamino}acetate], the figures for the negative-log IC50 (pIC50) at CXCR1 receptor and on CXCR2 receptor were 6.19 and 7.14, respectively.

For `Cc1ccc(C(Nc2c(Nc3cccc(C(=O)N4CCOCC4)c3O)c(=O)c2=O)C2(C)COC2)o1` (stereo not drawn) [Example 15, 3-[2-hydroxy-3-(morpholine-4-carbonyl)phenylamino]-4-{[(5-methylfuran-2-yl)-(3-methyloxetan-3-yl)methyl]amino}cyclobut-3-ene-1,2-dione], the negative-log IC50 (pIC50) is 5.50 on CXCR1 receptor and 6.20 at CXCR2 receptor.
